Assay results taken from patent US6416752B1, “Termite bait composition and method” (Whitmire Micro-Gen Research Laboratories, Inc., priority 2001, dated 2002).
Several values for one entry are separate records, joined by “and”; a condition that tells them apart may be missing. Equal entries are not always repeated.

Tested on: Reticulitermes virginicus
Test: standard choice box test of termite bait compositions with killing agents
Type: in vivo
Details: for Percent Survivorship: choice with untreated pine wood; for Amount of Wood Removed: untreated pine wood blocks; for termites killed: after 25 days
Protocol: The termite bait active ingredients or killing agents diflubenzuron, emamectin benzoate and thiamethoxam were tested for their efficacy. The termite species tested was Reticulitermes virginicus. The methodology employed was the standard “choice box” test used in Example 1 in which termites were released into a central chamber with untreated wood. The central chamber was connected, using Tygon tubing (2 mm I D), with peripheral feeding chambers containing a termite bait composition of the invention (microcrystalline cellulose powder having an average particle size of 20 micrometers and a termite killing agent) or untreated pine wood. Each replicate was given the choice of one gram of the treated cellulose powder or three blocks (1 cm) of untreated pine wood. At the end of 25 or 37 days, the number of live termites was counted. At the same time, the amount of pine wood or termite bait composition consumed was measured. The treatments were replicated two times.

[1] = 25 days in bioassay, 0.05% in microcrystalline cellulose powder

Row | Molecule | Percent Survivorship (37 days in bioassay, 0.5% in microcrystalline cellulose powder) | control of termites (after 37 days exposure) | Amount of Cellulose Powder Removed (600 h) [g] | Percent Survivorship [1] [%] | Amount of Wood Removed (25 days, 0.05%) [g] | termites killed [%] | Amount of Cellulose Powder Removed (25 days, 0.05%, one gram of treated cellulose powder offered)
1 | O=C(NC(=O)c1c(F)cccc1F)Nc1ccc(Cl)cc1 [Dimilin, diflubenzuron] | 0.1% and 0% | almost complete control |  |  |  |  | 
2 | CN1COCN(Cc2cnc(Cl)s2)/C1=N\[N+](=O)[O-] [Thiamethoxam, thiamethoxam] |  |  | 0.01 | 0 | 0 | 100 | 
3 | emamectin benzoate |  |  |  | 0 | 0 | 100 | 0.07 g and 0.13 g
